Experimental data reported in patent publication US20180185347A1, “TETRAHYDROCYCLOPENTA[B]INDOLE COMPOUNDS AND PHOSPHODIESTERASE INHIBITORS FOR THE TREATMENT OF THE SIGNS AND SYMPTOMS OF BHP” (Transition Therapeutics (Ireland 2) Limited, priority 2016, published 2018).

Columns and labels:
Rat bioavailability = assay type: in vivo
LnCAP cells = test: LnCAP gene expression; assay type: cell-based; settings: Homo sapiens, read-out: LnCAP Gene Expression EC50 (nM) AR
[1] = biological target: T1, serum hormone binding globulin (Homo sapiens, UniProt P04278); test: Affinity to serum hormone binding globulin; settings: at 10 μM
T1 sequence (P04278 30-402): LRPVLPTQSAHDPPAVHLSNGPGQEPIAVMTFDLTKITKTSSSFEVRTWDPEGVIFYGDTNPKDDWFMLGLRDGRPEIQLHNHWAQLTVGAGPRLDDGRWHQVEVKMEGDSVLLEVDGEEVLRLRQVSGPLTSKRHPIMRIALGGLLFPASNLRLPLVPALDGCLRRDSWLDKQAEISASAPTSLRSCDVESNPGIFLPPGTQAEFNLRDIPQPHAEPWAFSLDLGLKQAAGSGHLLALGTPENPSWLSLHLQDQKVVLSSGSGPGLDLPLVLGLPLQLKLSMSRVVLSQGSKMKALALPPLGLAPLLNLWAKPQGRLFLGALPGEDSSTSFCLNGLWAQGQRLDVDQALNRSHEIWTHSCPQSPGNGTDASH

[2] = biological target: T2, 17-beta-Hydroxysteroid Dehydrogenase Type 2 (Homo sapiens, UniProt P37059); test: Metabolism by 17-beta-HSD type 2; assay type: in vitro ADME
T2 sequence (P37059 1-387): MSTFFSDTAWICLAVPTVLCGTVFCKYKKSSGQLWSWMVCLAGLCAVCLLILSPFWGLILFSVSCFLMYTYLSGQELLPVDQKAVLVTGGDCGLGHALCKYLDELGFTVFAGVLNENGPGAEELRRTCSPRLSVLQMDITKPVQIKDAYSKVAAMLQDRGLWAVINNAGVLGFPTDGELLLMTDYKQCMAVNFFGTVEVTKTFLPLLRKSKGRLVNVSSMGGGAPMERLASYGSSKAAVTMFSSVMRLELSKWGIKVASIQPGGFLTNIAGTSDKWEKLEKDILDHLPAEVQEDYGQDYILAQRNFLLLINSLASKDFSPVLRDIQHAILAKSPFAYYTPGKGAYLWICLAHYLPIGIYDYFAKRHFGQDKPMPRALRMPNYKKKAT

[3] = Clinical body composition and muscle power; assay type: in vivo, human
Excerpt: The Phase 2 Study for ED also included exploratory measures for lower extremity muscle strength and power, LBM and fat mass. […] The results are illustrated in FIGS. 12, 13, and 14.

[4] = Study GPEC, 12 weeks, 5 mg + 5 mg tadalafil compared with 10 mg tadalafil

With CC(C)OC(=O)N[C@H]1Cc2c(n(Cc3ccccn3)c3ccc(C#N)cc23)C1 [compound of Formula II, (S)-(7-cyano-4-pyridin-2-ylmethyl-1,2,3,4-tetrahydro-cyclopenta[b]indol-2-yl)-carbamic acid isopropyl ester] the bioavailability (Rat bioavailability; in vivo, read-out: Rat F %) was 63%, the “Rat F %” value (Rat bioavailability; listed as TT701) was 63% and the EC50 (LnCAP cells) was 1.64 nM. The “affinity to serum hormone binding globulin” value [1] was “none detected”, the “metabolism by 17-beta-Hydroxysteroid Dehydrogenase Type 2 class of enzymes” value [2] was “not metabolized” and the “LBM and calf area (by CT)” value ([3]; Study GPBC, healthy subjects, 28 days) was “clinically and statistically significant increases”. For the same compound, the “fat body mass and LBM” value [3, 4] was “reduction of fat body mass and an increase (improvement) of LBM”, the “lower extremity muscle power (stair climb)” value [3, 4] was “increased (improved)” and the lean body mass ([3]; clinical studies in patients with androgen deficiency) was “clinically and statistically significant increases”.
